Measured values reported in patent publication US11000481B2, “Composite preparation of mosapride and rabeprazole” (KOREA UNITED PHARM. INC., priority 2015, dated 2021).
Where two headings read alike, the source gives them in different places.

Columns and labels:
[1] = exposed to an acidic condition of pH 6.8 or below; conventionally known; cited from earlier work
[2] = Stability of rabeprazole sodium depending on pH; assay type: physicochemical; conditions: condition of pH 9.0
Description: Accordingly, it was difficult to conduct a dissolution test for the rabeprazole sodium drug in general conditions.

Stability of rabeprazole sodium [2]: highly stable
Structure (SMILES): COCCCOc1ccnc(C[S+]([O-])c2nc3ccccc3[nH]2)c1C (centres unmarked) [rabeprazole sodium]
Stability of rabeprazole sodium [1]: degraded
